Source: US11072598B2, “Somatostatin modulators and uses thereof” (CRINETICS PHARMACEUTICALS, INC., priority 2017, dated 2021)
Read-outs that look alike come from different tables or passages of the source.

Tests used:
[1] = target: T1, hERG ion channel (Homo sapiens, UniProt Q12809); test: hERG fluorescence polarization assay (Predictor kit); format: binding; conditions: tracer displacement, membrane fractions; read-out: hERG inh.
T1 construct: purchased ThermoFisher Scientific PV5365
Procedure: On the day of the assay, various dilutions of test articles of the invention are prepared in assay buffer (Predictor™ hERG Fluorescence Polarization Assay Kit, ThermoFisher Scientific #PV5365) and dilutions are added to membranes fractions that contain the functional hERG ion channel (supplied by the kit). […] Under normal conditions, the tracer binds to the hERG channel and the fluorecence polarization measured is high. […] The concentration of free tracer is measured via fluorescence polarization using parameters prescribed in the kit with a Tecan M1000Pro multiplate reader. […] The fluorescence polarization is plotted versus test article concentration and an IC50 for hERG inhibition is calculated using standard methods. All data manipluations are in GraphPad Prism v6.

[2] = target: T2, human CYP2D6 isozyme (Homo sapiens, UniProt P10635); test: CYP2D6 assay (Vivid CYP2D6 Blue Screening Kit); format: in vitro ADME; conditions: CYP450 microsomes, fluorogenic substrate; read-out: CYP2D6 inh.
T2 construct: purchased ThermoFisher Scientific P2972
Procedure: On the day of the assay, various dilutions of test articles of the invention are prepared in assay buffer (Vivid® CYP2D6 Blue Screening Kit, ThermoFisher Scientific #P2972) and dilutions are added to a preparation of CYP450 microsomes expressing the functional human CYP2D6 isozyme (supplied by the kit) and incubated for 15 minutes at 37° C. to allow interactions between the test article of invention and the enzyme in the absence of enzyme turnover. The enzymatic reaction is initiated by addition of the NADPH co-factor in the precense of the fluorogenic substrate. Under normal conditions, this substrate (which is not fluorescent) is cleaved by active CYP2D6 to produce a a fluorescent product. When in the presence of test article, the lack of appearance of the fluorescent product is evidence of inhibition of the CYP2D6 enzyme by the test article. The enzymatic reaction is allowed to proceed for 30 minutes at […] and then terminated by the addition of 0.5 M Tris pH 10.8. The concentration of fluorescent cleavage product is measured using spectroscopic parameters prescribed in the kit with a Tecan M1000Pro multiplate reader. The percent inhibition is calculated based on the fluorescence intensity observed in the presence of the positive control inhibitor, quinidine (Sigma #Q3625), included in each assay. The percent inhibition is plotted versus test article concentration and an IC50 for CYP2D6 inhibition is calculated using standard methods. All data manipluations are in GraphPad Prism v6.

[3] = target: T3, human somatostatin receptor subtype 2 (Homo sapiens, UniProt P30874); test: cAMP functional assay for SSTR2 agonists; format: cell-based
T3 construct: expressed in transfected cells
How it was run: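 CHO-K1 cells stably expressing human SSTR2 were treated for 20 min at 37 °C with compound plus NKH477 (added as 1.6 μM) in HBSS with IBMX. Intracellular cAMP was measured by HTRF against a standard curve. EC50 values came from concentration-response curves.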

[4] = target: T4, hSSTR4 (Homo sapiens, UniProt P31391); test: inhibition of cAMP via hSSTR4; format: cell-based; conditions: for EC50: cAMP inhibition, Table C, read-out: hSST4 (EC50); for hSST4/hSST2 (ratio): selectivity for inhibition of cAMP via hSSTR2 vs. hSSTR4
T4 construct: expressed in transfected cells
Source text: General overview: All five SSTR subtypes are Gi coupled G-protein coupled receptors (GPCRs) that lead to decreases in intracellular cyclic AMP (cAMP) when activated by an agonist. Therefore, measurement of intracellular cAMP levels can be used to assess whether compounds of the invention are agonists of SSTR subtypes (John Kelly, Troy Stevens, W. Joseph Thompson, and Roland Seifert, Current Protocols in Pharmacology, 2005, 2.2.1-2.2). One example of an intracellular cAMP assay is described below. cAMP assay protocol:
Four days prior to the assay, 5,000 Chinese hamster ovary cells (CHO-K1, ATCC #CCL-61) stably expressing the human somatostatin receptor subtype 2 are plated in each well of a 96-well tissue culture-treated plate in Ham's F12 growth media (ThermoFisher #10-080-CM) supplemented with 10% donor bovine serum (Gemini Bio-Products #100-506), 100 U/mL penicillin; 100 ug/mL streptomycin; 2 mM L-glutamine (Gemini Bio-Products #400-110) and 0.2 mg/mL hygromycin B (GoldBio #31282-04-9). The cells are cultured at 37° C., 5% CO2 and 95% humidity. On the day of the assay, the media is aspirated and the cells are treated with 50 μL of 1.6 μM NKH477 (Sigma #N3290) plus various dilutions of compounds of the invention in assay buffer [1× Hank's Balanced Salt Solution (ThermoFisher #SH3058802), 0.5 mM HEPES pH 7.4, 0.1% bovine serum albumin, 0.2 mM 3-Isobutyl-1-methylxanthine (IBMX, VWR #200002-790)]. The cells are incubated for 20 minutes at 37° C. (the final concentration of the compounds of the invention are typically 0-10,000 nM). The cells are treated with 50 μL of lysis buffer (HRTF cAMP kit, Cisbio). The lysate is transferred to 384-well plates and cAMP detection and visualization antibodies are added and incubated for 1-24 hours at room temperature. The time-resolved fluorescent signal is read with a Tecan M1000Pro multiplate reader. The intracellular cAMP concentrations are calculated by regression to a standard curve and are plotted vs. the concentration of the compounds of the invention and the EC50 of the compounds are calculated using standard methods. All data manipluations are in GraphPad Prism v6.

[5] = cAMP inhibition, Table C, read-out: hSST2 (EC50)
[6] = inhibition of cAMP activities via human SST2 receptor (SSTR2), CHO-K1 cells, read-out: EC50

T2 sequence (P10635 whole entry): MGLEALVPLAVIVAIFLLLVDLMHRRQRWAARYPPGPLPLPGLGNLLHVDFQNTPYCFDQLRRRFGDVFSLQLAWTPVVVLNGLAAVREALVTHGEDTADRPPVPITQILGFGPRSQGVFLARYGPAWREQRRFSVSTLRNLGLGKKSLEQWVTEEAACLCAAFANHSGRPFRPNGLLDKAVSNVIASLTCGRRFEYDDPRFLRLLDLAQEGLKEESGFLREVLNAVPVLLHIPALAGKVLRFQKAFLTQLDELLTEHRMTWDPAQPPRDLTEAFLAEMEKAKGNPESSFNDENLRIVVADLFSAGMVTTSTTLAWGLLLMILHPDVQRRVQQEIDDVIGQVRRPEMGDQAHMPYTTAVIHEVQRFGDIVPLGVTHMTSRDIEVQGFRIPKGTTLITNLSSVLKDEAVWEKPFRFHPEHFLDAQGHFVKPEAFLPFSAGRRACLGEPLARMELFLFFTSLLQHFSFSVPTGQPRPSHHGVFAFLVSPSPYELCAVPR
T4 sequence (P31391 whole entry): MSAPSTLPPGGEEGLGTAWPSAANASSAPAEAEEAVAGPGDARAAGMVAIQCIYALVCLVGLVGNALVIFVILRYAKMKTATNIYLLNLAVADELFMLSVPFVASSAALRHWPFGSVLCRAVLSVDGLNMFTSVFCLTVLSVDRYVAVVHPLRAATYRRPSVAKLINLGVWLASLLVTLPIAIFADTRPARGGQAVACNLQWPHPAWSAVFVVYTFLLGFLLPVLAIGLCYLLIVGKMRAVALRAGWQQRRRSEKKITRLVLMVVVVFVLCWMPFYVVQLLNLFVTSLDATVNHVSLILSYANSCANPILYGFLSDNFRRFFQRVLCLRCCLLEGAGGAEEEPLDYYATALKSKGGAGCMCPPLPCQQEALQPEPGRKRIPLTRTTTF
T3 sequence (P30874 whole entry): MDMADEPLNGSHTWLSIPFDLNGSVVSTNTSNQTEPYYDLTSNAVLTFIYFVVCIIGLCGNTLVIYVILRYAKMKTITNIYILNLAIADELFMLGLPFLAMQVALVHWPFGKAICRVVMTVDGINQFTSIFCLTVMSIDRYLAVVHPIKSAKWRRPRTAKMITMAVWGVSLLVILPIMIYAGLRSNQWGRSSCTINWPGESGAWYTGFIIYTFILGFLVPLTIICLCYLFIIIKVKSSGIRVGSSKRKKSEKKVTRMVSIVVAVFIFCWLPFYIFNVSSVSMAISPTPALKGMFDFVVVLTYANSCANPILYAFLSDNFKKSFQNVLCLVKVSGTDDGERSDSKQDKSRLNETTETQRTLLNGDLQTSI
T1 sequence (Q12809 whole entry): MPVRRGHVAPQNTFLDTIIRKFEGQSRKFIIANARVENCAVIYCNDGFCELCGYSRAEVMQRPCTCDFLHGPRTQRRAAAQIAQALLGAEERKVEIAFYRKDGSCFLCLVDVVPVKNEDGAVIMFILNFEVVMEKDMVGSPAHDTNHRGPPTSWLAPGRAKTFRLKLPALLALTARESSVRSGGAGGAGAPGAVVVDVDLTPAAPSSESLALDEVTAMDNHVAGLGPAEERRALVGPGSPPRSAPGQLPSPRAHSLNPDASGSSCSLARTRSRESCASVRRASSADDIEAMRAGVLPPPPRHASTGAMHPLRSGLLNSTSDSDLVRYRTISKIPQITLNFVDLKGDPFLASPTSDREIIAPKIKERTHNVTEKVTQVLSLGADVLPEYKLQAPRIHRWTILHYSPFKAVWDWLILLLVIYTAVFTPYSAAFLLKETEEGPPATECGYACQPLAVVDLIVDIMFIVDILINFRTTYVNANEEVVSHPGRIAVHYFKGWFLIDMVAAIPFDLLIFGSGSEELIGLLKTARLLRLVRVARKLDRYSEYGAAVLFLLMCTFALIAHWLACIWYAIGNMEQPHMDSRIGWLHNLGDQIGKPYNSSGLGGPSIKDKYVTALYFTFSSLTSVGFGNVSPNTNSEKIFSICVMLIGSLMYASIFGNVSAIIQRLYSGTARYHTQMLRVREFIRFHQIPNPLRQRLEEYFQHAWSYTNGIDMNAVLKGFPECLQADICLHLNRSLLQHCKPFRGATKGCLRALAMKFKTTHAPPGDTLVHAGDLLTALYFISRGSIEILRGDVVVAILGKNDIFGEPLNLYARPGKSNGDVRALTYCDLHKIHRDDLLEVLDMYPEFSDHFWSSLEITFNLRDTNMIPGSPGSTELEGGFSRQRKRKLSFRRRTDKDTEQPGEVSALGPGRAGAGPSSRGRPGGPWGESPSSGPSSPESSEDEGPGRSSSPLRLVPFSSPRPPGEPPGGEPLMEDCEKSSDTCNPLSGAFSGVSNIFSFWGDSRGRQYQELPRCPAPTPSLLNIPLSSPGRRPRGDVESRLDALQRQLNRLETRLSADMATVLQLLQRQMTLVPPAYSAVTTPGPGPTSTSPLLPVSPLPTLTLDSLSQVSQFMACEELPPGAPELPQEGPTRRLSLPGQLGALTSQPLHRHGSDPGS

SMILES	IC50 [1] [nM]	IC50 [2] [nM]	EC50 [3, 5] [nM]	EC50 [3, 6] [nM]	EC50 [4] [nM]	hSST4/hSST2 (ratio) [4]
Cc1cc(F)cc(-c2cnc(N)c(-c3nc4cc(F)ccc4[nH]3)c2N2CCC(N)CC2)c1 [Compound 1-6, 4-(4-aminopiperidin-1-yl)-3-(5-fluoro-1H-1,3-benzodiazol-2-yl)-5-(3-fluoro-5-methylphenyl)pyridin-2-amine]	> 5000	> 5000	0.06	< 10	0.92	b (between 15 and 50)
Cc1cc(F)cc(-c2cnc(N)c(-c3nc4cc(F)cc(OCC#N)c4[nH]3)c2N2CCC(N)CC2)c1 [Compound 1-74, 2-({2-[2-amino-4-(4-aminopiperidin-1-yl)-5-(3-fluoro-5-methylphenyl)pyridin-3-yl]-5-fluoro-1H-1,3-benzodiazol-7-yl}oxy)acetonitrile]				< 10		c (between 2.5 and 15)
Cc1cc(F)cc(-c2cncc(-c3nc4cccc(F)c4[nH]3)c2N2CCC(N)CC2)c1 [R^1=H, R^5=H, R^6=H, R^7=7-F, reference compound]	> 5000	< 5000	0.43		0.09	e (below 1)
CCn1c(-c2c(N)ncc(-c3cc(C)cc(F)c3)c2N2CCC(N)CC2)nc2cc(F)c(F)cc21 [Compound 1-5, 4-(4-aminopiperidin-1-yl)-3-(1-ethyl-5,6-difluoro-1H-1,3-benzodiazol-2-yl)-5-(3-fluoro-5-methylphenyl)pyridin-2-amine]				< 10		b (between 15 and 50)
Cc1cc(F)cc(-c2cncc(-c3nc4cc(F)ccc4[nH]3)c2N2CCC(N)CC2)c1 [R^1=H, R^5=H, R^6=5-F, R^7=H, reference compound]		< 5000			0.12	
Cc1cc(F)cc(-c2cnc(N)c(-c3nc4cc(F)c(F)cc4n3C)c2N2CCC(N)CC2)c1 [Compound 1-57, 4-(4-aminopiperidin-1-yl)-3-(5,6-difluoro-1-methyl-1H-1,3-benzodiazol-2-yl)-5-(3-fluoro-5-methylphenyl)pyridin-2-amine]				< 10		a (above 50)
COc1cc(F)cc2nc(-c3c(C)ncc(-c4cc(C)cc(F)c4)c3N3CCC(N)CC3)[nH]c12 [Compound 2-15, 1-[3-(5-fluoro-7-methoxy-1H-1,3-benzodiazol-2-yl)-5-(3-fluoro-5-methylphenyl)-2-methylpyridin-4-yl]piperidin-4-amine]				< 10		c (between 2.5 and 15)
CNc1ncc(-c2cc(C)cc(F)c2)c(N2CCC(N)CC2)c1-c1nc2cc(Cl)cc(F)c2[nH]1 [Compound 1-75, 4-(4-aminopiperidin-1-yl)-3-(5-chloro-7-fluoro-1H-1,3-benzodiazol-2-yl)-5-(3-fluoro-5-methylphenyl)-N-methylpyridin-2-amine]				< 10		a (above 50)
COc1ncc(-c2cc(C)cc(F)c2)c(N2CCC(N)CC2)c1-c1nc2cc(Cl)ccc2[nH]1 [Compound 2-2, 1-[3-(5-chloro-1H-1,3-benzodiazol-2-yl)-5-(3-fluoro-5-methylphenyl)-2-methoxypyridin-4-yl]piperidin-4-amine]				< 10		a (above 50)
Cc1cc(F)cc(-c2cnc(N)c(-c3nc4cc(F)c(F)cc4[nH]3)c2N2CCC(N)CC2)c1 [Compound 1-3, 4-(4-aminopiperidin-1-yl)-3-(5,6-difluoro-1H-1,3-benzodiazol-2-yl)-5-(3-fluoro-5-methylphenyl)pyridin-2-amine]				< 10		b (between 15 and 50)
CCNc1ncc(-c2cc(C)cc(F)c2)c(N2CCC(N)CC2)c1-c1nc2cc(F)c(F)cc2[nH]1 [Compound 1-50, 4-(4-aminopiperidin-1-yl)-3-(5,6-difluoro-1H-1,3-benzodiazol-2-yl)-N-ethyl-5-(3-fluoro-5-methylphenyl)pyridin-2-amine]				< 10		a (above 50)
COc1ccc2[nH]c(-c3c(N)ncc(-c4cc(C)cc(F)c4)c3N3CCC(N)CC3)nc2c1 [Compound 1-8, 4-(4-aminopiperidin-1-yl)-5-(3-fluoro-5-methylphenyl)-3-(5-methoxy-1H-1,3-benzodiazol-2-yl)pyridin-2-amine]				< 10		b (between 15 and 50)
COc1ncc(-c2cc(C)cc(F)c2)c(N2CCC(N)CC2)c1-c1nc2cc(F)cc(F)c2[nH]1 [Compound 2-5, 1-[3-(5,7-difluoro-1H-1,3-benzodiazol-2-yl)-5-(3-fluoro-5-methylphenyl)-2-methoxypyridin-4-yl]piperidin-4-amine]				< 10		a (above 50)
COc1ccc2[nH]c(-c3c(OC)ncc(-c4cc(C)cc(F)c4)c3N3CCC(N)CC3)nc2c1 [Compound 2-3, 1-[5-(3-fluoro-5-methylphenyl)-2-methoxy-3-(5-methoxy-1H-1,3-benzodiazol-2-yl)pyridin-4-yl]piperidin-4-amine]				< 10		a (above 50)
Cc1cc(F)cc(-c2cnc(N)c(-c3nc4cc(Cl)cc(F)c4[nH]3)c2N2CCC(N)CC2)c1 [Compound 1-54, 4-(4-aminopiperidin-1-yl)-3-(5-chloro-7-fluoro-1H-1,3-benzodiazol-2-yl)-5-(3-fluoro-5-methylphenyl)pyridin-2-amine]				< 10		a (above 50)
Cc1cc(F)cc(-c2cnc(N)c(-c3nc4cc(OC(F)(F)F)ccc4[nH]3)c2N2CCC(N)CC2)c1 [Compound 1-14, 4-(4-aminopiperidin-1-yl)-5-(3-fluoro-5-methylphenyl)-3-[5-(trifluoromethoxy)-1H-1,3-benzodiazol-2-yl]pyridin-2-amine]				< 10		a (above 50)
CCNc1ncc(-c2cc(C)cc(F)c2)c(N2CCC(N)CC2)c1-c1nc2cc(F)cc(F)c2[nH]1 [Compound 1-49, 4-(4-aminopiperidin-1-yl)-3-(5,7-difluoro-1H-1,3-benzodiazol-2-yl)-N-ethyl-5-(3-fluoro-5-methylphenyl)pyridin-2-amine]				< 10		a (above 50)
CCNc1ncc(-c2cc(C)cc(F)c2)c(N2CCC(N)CC2)c1-c1nc2cc(Cl)ccc2[nH]1 [Compound 1-30, 4-(4-aminopiperidin-1-yl)-3-(5-chloro-1H-1,3-benzodiazol-2-yl)-N-ethyl-5-(3-fluoro-5-methylphenyl)pyridin-2-amine]				< 10		a (above 50)
